Measured values from PMC9133015 (Nature Communications, 2022).
Several values for one entry are separate records, joined by “and”; a condition that tells them apart may be missing. Equal values may be shown once.

Molecular target: T1, DYRK2 (Homo sapiens, UniProt Q92630)
T1 construct: purchased Reaction Biology Corporation (assay service)
T1 sequence (Q92630 1-601): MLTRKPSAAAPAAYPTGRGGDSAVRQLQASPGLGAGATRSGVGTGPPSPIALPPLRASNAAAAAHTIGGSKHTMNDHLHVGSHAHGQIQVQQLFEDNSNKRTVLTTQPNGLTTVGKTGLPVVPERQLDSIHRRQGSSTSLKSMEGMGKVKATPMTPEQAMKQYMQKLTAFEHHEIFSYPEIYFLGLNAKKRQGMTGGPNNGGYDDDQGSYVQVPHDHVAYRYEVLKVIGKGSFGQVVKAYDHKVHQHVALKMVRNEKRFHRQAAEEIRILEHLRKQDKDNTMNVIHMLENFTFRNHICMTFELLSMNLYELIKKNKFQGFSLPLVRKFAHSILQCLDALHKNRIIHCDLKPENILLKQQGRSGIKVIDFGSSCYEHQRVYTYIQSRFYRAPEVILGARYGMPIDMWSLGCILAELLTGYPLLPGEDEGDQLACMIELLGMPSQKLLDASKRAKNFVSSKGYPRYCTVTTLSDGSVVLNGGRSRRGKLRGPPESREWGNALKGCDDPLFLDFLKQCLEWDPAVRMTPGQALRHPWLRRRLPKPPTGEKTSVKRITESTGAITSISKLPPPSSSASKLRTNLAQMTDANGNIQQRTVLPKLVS
Test: DYRKs kinase activity assay (33P-ATP, DYRKtide substrate): DYRK2
Format: biochemical
Conditions: for IC50: Supplementary Table 1, read-out: IC50 (μM), DYRK2 kinase

[1] = DYRK2 kinase, Conc. 0.000508053 µM, duplicate values
[2] = DYRK2 kinase, Conc. 0.00152416 µM, duplicate values
[3] = DYRK2 kinase, Conc. 0.00457247 µM, duplicate values
[4] = DYRK2 kinase, Conc. 0.0137174 µM, duplicate values
[5] = DYRK2 kinase, Conc. 0.0411523 µM, duplicate values
[6] = DYRK2 kinase, Conc. 0.123457 µM, duplicate values
[7] = DYRK2 kinase, Conc. 0.37037 µM, duplicate values
[8] = DYRK2 kinase, Conc. 1.11111 µM, duplicate values
[9] = DYRK2 kinase, Conc. 3.33333 µM, duplicate values
[10] = DYRK2 kinase, Conc. 10 µM, duplicate values

| Structure (SMILES) | % Inhibition [1] | % Inhibition [2] | % Inhibition [3] | % Inhibition [4] | % Inhibition [5] | % Inhibition [6] | % Inhibition [7] | % Inhibition [8] | % Inhibition [9] | % Inhibition [10] | IC50 [µM] | inhibition at 0.00152416 µM (DYRK2 kinase, Conc. 0.00152416 µM, duplicate values, read-out: % Inhibition) [%] | inhibition at 3.33333 µM (DYRK2 kinase, Conc. 3.33333 µM, duplicate values, read-out: % Inhibition) [%] | inhibition at 10 µM (DYRK2 kinase, Conc. 10 µM, duplicate values, read-out: % Inhibition) [%] | DYRK2 inhibitory activity (in words) (structural optimization of lead 12) |
| --- | --- | --- | --- | --- | --- | --- | --- | --- | --- | --- | --- | --- | --- | --- | --- |
| COc1cc(-c2nnc(CSc3nc4c(OC)ccc(OC)c4[nH]3)o2)cc(OC)c1OC [Compound 15] | -1.53% and -4.09% | -4.76% and -6.22% | -1.13% and -0.37% | -10.53% and -12.16% | -9.17% and -11.37% | -2.00% and -9.98% | -8.29% and -9.76% | -3.66% and -9.01% | 0.93% and -1.24% | 16.42% and 14.23% | > 10 | – | – | – | – |
| CC(C)COc1cccc(-c2cc(C(=O)Nc3sc(C(C)C)cc3C(N)=O)c3ccccc3n2)c1 [Compound 9] | 0.43% and 0.42% | 1.70% and 1.66% | -1.24% and 1.19% | -4.62% and -2.11% | -1.40% and 1.03% | 2.80% and 5.13% | 6.00% and 8.26% | 12.51% and 17.02% | 18.00% and 19.98% | 35.11% and 36.69% | > 10 | – | – | – | – |
| CCN1CCN(C(=O)c2ccc(Nc3nc(-c4ccc5nc(N(C)C)sc5c4)c4sccc4n3)nc2)CC1 [Compound 27] | -2.37% and 0.19% | 1.48% | 3.31% and -4.82% | 5.42% and 2.62% | -2.71% and -6.99% | 2.56% and -2.91% | 3.14% and 0.34% | -1.20% and -1.05% | 2.76% | 7.55% | – | 1.6 | 2.35 | 7.66 | no inhibition |
| CC(=NNc1nc2c(c(=O)n(Cc3ccccc3)c(=O)n2C)n1Cc1ccccc1)c1ccccc1 [Compound 5] | 1.24% and 7.59% | -1.11% and 5.39% | 11.00% and 16.72% | 2.77% and 9.02% | 5.65% and 11.72% | 2.54% and 8.81% | 4.47% and 10.61% | 17.84% and 23.14% | 28.55% and 33.16% | 29.52% and 31.99% | > 10 | – | – | – | – |
| O=C(COc1ccccc1-c1ccnn1-c1ccccc1)NN=Cc1coc2ccc(Cl)cc2c1=O [Compound 11] | -0.64% and -0.50% | -10.49% and -4.61% | -7.80% and -6.47% | 2.76% and 2.77% | 5.64% and 5.65% | 2.54% | 6.34% and 2.72% | 14.05% and 16.10% | 22.86% and 21.57% | 38.49% and 39.53% | > 10 | – | – | – | – |
| CCOC(=O)CC1=NN(c2ccccc2)C(=O)C1=c1sc(=C2Sc3ccccc3N2C)c(=O)n1CC [Compound 6] | -4.08% and 2.50% | 1.60% and 6.11% | 3.31% and 7.66% | 5.42% and 7.24% | -2.71% and 2.20% | 2.56% and 6.98% | 3.14% and 5.17% | -1.20% and 3.57% | 2.35% and 4.46% | 7.66% and 11.60% | > 10 | – | – | – | – |
| CC(C)c1ccc2c(c1)C(N1CCN(CCc3ccc(F)cc3)CC1)Cc1ccc(F)cc1S2 (centres unmarked) [Compound 1] | -1.87% and -4.38% | -4.34% and -6.85% | -8.65% and -6.11% | -12.64% and -10.09% | -8.55% and -6.02% | -2.02% and 0.35% | 1.52% and 4.04% | 8.35% and 5.81% | 1.80% and 0.0379% | 28.07% and 27.88% | > 10 | – | – | – | – |
| COc1ccc(C2CC(c3ccc(Cl)cc3)=NN2c2ccc(C=NNc3ccccc3)cc2)cc1 (centres unmarked) [Compound 3] | 1.91% and 4.22% | 6.35% and 8.58% | 2.63% and 4.93% | 8.54% and 10.71% | 6.26% and 8.49% | 10.47% and 12.60% | 12.78% and 14.86% | 20.14% and 19.70% | 22.94% and 20.08% | 22.88% and 24.74% | > 10 | – | – | – | – |
| Cn1c(CN2CCN(C(=O)C3CCCCC3)CC2)nc2cc(NC(=O)Nc3ccccc3)ccc21 [Compound 13] | 1.82% and 2.74% | 3.66% and 2.25% | 7.30% and 8.12% | 10.53% and 13.70% | 5.97% and 6.86% | 12.38% and 8.48% | 14.58% and 13.01% | 21.59% and 24.67% | 29.05% and 32.01% | 31.39% and 34.31% | > 10 | – | – | – | – |
| Cc1ccccc1C1C=C(c2ccccc2)OC(c2ccccc2)=C1C=NCCc1c[nH]c2ccccc12 (centres unmarked) [Compound 2] | -5.36% and -2.56% | -6.00% and -8.80% | -4.71% and -7.51% | 3.44% and 4.28% | 3.20% and 5.16% | 5.94% and 3.15% | 4.61% and 6.29% | 5.16% and 2.64% | 1.41% and 4.21% | 9.74% and 12.54% | > 10 | – | – | – | – |
